Reference: patent publication US9164105B2, “Pancreatic cancer biomarker using the characteristics of pancreatic cancer stem cells, and use thereof” (INDUSTRY-ACADEMIC COOPERATION FOUNDATION, YONSEI UNIVERSITY, priority 2012, dated 2015)

Legend:
Type in all cases: cell-based, human
Hpac-spheres = experiment: Inhibition of sphere formation by stem cell signaling inhibitors; settings: inhibitor added into sphere culture medium, observed after 7 days
Protocol: (§1) For sphere formation, pancreatic cancer cell lines were plated 1000 cell/mL in serum-free DMEM/F12 supplemented with EGF (10 ng/mL, R&D Systems Inc., Minneapolis, Minn.), bFGF ([…], R&D Systems Inc.), 1 ITS (insulin transferring selenium, Gibco) and 0.5% FBS on Corning Costar ultra-low attached 6-well culture dishes (Corning Inc., Corning, N.Y., US), and cultured for 7-10 days. The adherent cells cultured with the same media by attaching on culture plates (Nalgene Nunc Int., Rochester, N.Y.) were used as a control group.
Well-known stem cell signaling inhibitors DAPT (Calbiochem, San Diego, Calif., USA), Cyclopamine-KAAD (Calbiochem, San Diego, Calif., USA), LiCl (Sigma-Aldrich, Inc., St. Louis, Mo.), ATRA (Sigma-Aldrich, Inc., St. Louis, Mo.), OV (Sigma-Aldrich, Inc., St. Louis, Mo.) were added added into sphere culture medium, and cultured. After 7 days, sphere formation was observed.

Hpac cell line [1] = experiment: Doubling time assay (cell proliferation) of GLRX3 knock-down cell line; settings: GLRX3 k/d cell line compared to the control, counted for 5 days
Protocol: (§2) Selection marker was puromycin ([…]).

Hpac cell line [2] = experiment: Sphere culture of GLRX3 knock-down cell line; settings: sphere-cultured for 7 days, vs control cell line
Protocol: as §1
(§3) For clonogenic assay, 0.6% agar in cell media was boiled, hardened on 24-well plate (lower layer media). The cells at density of 1000 cell/well and 0.3% agar-cell media (upper layer media) were mixed, and hardened on lower layer media. Once 0.3% upper layer media was hardened, 500 μL/well of media was added on the upper layer media. Adding the media every third day, the cells were cultured for 3-4 weeks. Afterward, the media on agar was removed, stained with crystal violet to count the number of colony.

Hpac cell line [3] = experiment: Clonogenic assay of GLRX3 knock-down cell line; settings: soft agar, 3-4 weeks, vs control cell line
Protocol: as §3

Hpac cell line [4] = experiment: Wound-healing assay of GLRX3 knock-down cell line; settings: GLRX3 k/d cell line compared to the control
Protocol: as §2

GLRX3 = GLRX3 mRNA and protein expression in GLRX3 knock-down cell line (PCR and western blot); settings: Hpac cell line transfected with shRNA, puromycin-selected clones, vs control shRNA
Protocol: as §2

CFAPC-1 cells = experiment: Fluorescence-Activated Cell Sorting of CD24/CD44/ESA after GLRX3 siRNA transfection; settings: 72 hours after transfection; decreased from 70.4% (control)
Protocol: To inhibit GLRX3, siRNA (invitrogen Stealth™ siRNA duplex oligoribonucleotides) to GLRX3 was used. Sense siRNA sequence was UGAGGGAGUUCUUUAGCUAACUCUG, and antisense siRNA sequence was CAGAGUUAGCUAAAGAACUCCCUCA. Med GC (invitrogen) was used as negative control siRNA. CFAPC-1 cells were transfected with GLRX3 or negative control siRNA using RNAiMAX (invtirogen, Carlsbad, Calif., US), and incubated for 72 hours. The cells were treated with accutase (Sigma-Aldrich, St. Louis, Mo.) to prepare suspensions with the same number of single cells. Afterward, the cells were stained with PE-CD24 (BD Biosciences PharMingen, San Diego, Calif.), APC-CD44 (BD Biosciences PharMingen, San Diego, Calif.) and FITC-ESA (BD Biosciences PharMingen, San Diego, Calif.). Fluorescence-Activated Cell Sorting was carried out using BD LSR II (BD Biosciences, Franklin Lakes, N.J.) and analyzed by BD FACSDiva software.

Compound: CC1=C2C[C@H]3[C@@H](CC=C4CC(=O)CC[C@@]43C)[C@@H]2CC[C@]12O[C@@H]1C[C@H](C)CN(CCNC(=O)CCCCCNC(=O)CCc3ccccc3)[C@H]1[C@H]2C [KAAD, Cyclopamine-KAAD]
- ability to form sphere in Hpac-spheres (Hpac-spheres): completely inhibited or reduced

Compound: CC1=C(/C=C/C(C)=C/C=C/C(C)=C/C(=O)O)C(C)(C)CCC1 [ATRA]
- ability to form sphere in Hpac-spheres (Hpac-spheres): completely inhibited or reduced

Compound: shRNA to GLRX3: shRNA plasmid to GLRX3, sequence GTGGAAATTCTTCACAAACAT (SEQ ID NO:4), used to establish the GLRX3 knock-down Hpac line (guide GTGGAAATTCTTCACAAACAT; listed as Homo sapiens)
- cell proliferation rate (Hpac cell line [1]): decreased
- ability to form spheres (Hpac cell line [2]): not formed
- colonies formed (viability and proliferation) (Hpac cell line [3]): fewer colonies
- cell migration activity (Hpac cell line [4]): decreased
- Expressions of mRNA and protein of GLRX3 (GLRX3): significantly reduced

Compound: siRNA to GLRX3: Stealth siRNA duplex to GLRX3; sense UGAGGGAGUUCUUUAGCUAACUCUG (SEQ ID NOs:2 and 3) (chain 1 UGAGGGAGUUCUUUAGCUAACUCUG; chain 2 CAGAGUUAGCUAAAGAACUCCCUCA; listed as RNA, chemistry not given here; listed as Homo sapiens)
- fraction of CD24+/CD44+/ESA+ (CFAPC-1 cells): 29.3%

Compound: [Cl-].[Li+] [LiCl]
- ability to form sphere in Hpac-spheres (Hpac-spheres): completely inhibited or reduced

Compound: C[C@H](NC(=O)Cc1cc(F)cc(F)c1)C(=O)N[C@H](C(=O)OC(C)(C)C)c1ccccc1 [DAPT]
- ability to form sphere in Hpac-spheres (Hpac-spheres): completely inhibited or reduced

Compound: [Na+].[Na+].[Na+].[O]=[V]([O-])([O-])[O-] [OV]
- ability to form sphere in Hpac-spheres (Hpac-spheres): completely inhibited or reduced
